Measured values from ChEMBL document CHEMBL1201862, “PubChem BioAssay data set” (2004).
“And” between values parts separate entries of the source, which are not always exact repeats. Identical values can stand only once.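 Method: 48-hour compound exposure of cells in 96-well plates, five concentrations, linear interpolation of endpoints. Abbreviation: GI50, concentration required for 50% inhibition of growth.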 The source made the active and inactive calls. Rule as the data show it: active = GI50 up to about 1.1 µM and inactive = higher.

How the values were obtained:
Test in all cases: DTP human tumour cell line panel, 48 h
786-0 = test system: 786-0
A498 = test system: A498
A549 = test system: A549
ACHN = test system: ACHN
CAKI-1 = test system: CAKI-1
CCRF-CEM = test system: CCRF-CEM
COLO 205 = test system: COLO 205
DLD-1 = test system: DLD-1
DMS-114 = test system: DMS-114
DMS-273 = test system: DMS-273
EKVX = test system: EKVX
HCC 2998 = test system: HCC 2998
HCT-116 = test system: HCT-116
HCT-15 = test system: HCT-15
HOP-18 = test system: HOP-18
HOP-62 = test system: HOP-62
HOP-92 = test system: HOP-92
HT-29 = test system: HT-29
IGROV-1 = test system: IGROV-1
K562 = test system: K562
KM-20L2 = test system: KM-20L2
KM12 = test system: KM12
LOX IMVI = test system: LOX IMVI
LXFL 529 = test system: LXFL 529
M14 = test system: M14
MOLT-4 = test system: MOLT-4
Malme-3M = test system: Malme-3M
NCI-H226 = test system: NCI-H226
NCI-H23 = test system: NCI-H23
NCI-H460 = test system: NCI-H460
NCI-H522 = test system: NCI-H522
OVCAR-3 = test system: OVCAR-3
OVCAR-4 = test system: OVCAR-4
OVCAR-5 = test system: OVCAR-5
OVCAR-8 = test system: OVCAR-8
RPMI-8226 = test system: RPMI-8226
RXF 393 = test system: RXF 393
RXF 631 = test system: RXF 631
SF-268 = test system: SF-268
SF-295 = test system: SF-295
SK-MEL-28 = test system: SK-MEL-28
SK-MEL-2 = test system: SK-MEL-2
SK-MEL-5 = test system: SK-MEL-5
SK-OV-3 = test system: SK-OV-3
SN12C = test system: SN12C
SNB-19 = test system: SNB-19
SNB-75 = test system: SNB-75
SNB-78 = test system: SNB-78
SR = test system: SR
SW-620 = test system: SW-620
TK-10 = test system: TK-10
U-251 = test system: U-251
UACC-257 = test system: UACC-257
UACC-62 = test system: UACC-62
UO-31 = test system: UO-31
BT-549 = test system: BT-549
HL-60 = test system: HL-60
M19-MEL = test system: M19-MEL
MCF7 = test system: MCF7
PC-3 = test system: PC-3
T47D = test system: T47D
SF-539 = test system: SF-539

CCCCCCCCCCCCCCCCCC(=O)OCC(CN(C)CCN(C)C)OC(=O)CCCCCCCCCCCCCCCCC (configuration not stated)
GI50 (786-0): > 100 µM (inactive) | GI50 (A498): > 100000 nM (inactive) | GI50 (A549): 55.3 µM (inactive) | GI50 (ACHN): 91600 nM (inactive) | GI50 (CAKI-1): > 100 µM (inactive) | GI50 (CCRF-CEM): 42.9 µM (inactive) | GI50 (COLO 205): > 100000 nM (inactive) | GI50 (DLD-1): 89700 nM (inactive) | GI50 (DMS-114): 46100 nM (inactive) | GI50 (DMS-273): > 100000 nM (inactive) | GI50 (EKVX): > 100 µM (inactive) | GI50 (HCC 2998): 75.9 µM (inactive) | GI50 (HCT-116): 55.2 µM (inactive) | GI50 (HCT-15): > 100000 nM | GI50 (HOP-18): 20600 nM (inactive) | GI50 (HOP-62): > 100000 nM (inactive) | GI50 (HOP-92): > 100000 nM (inactive) | GI50 (HT-29): 40.2 µM (inactive) | GI50 (IGROV-1): > 100000 nM (inactive) | GI50 (K562): 15800 nM (inactive) | GI50 (KM-20L2): > 100000 nM (inactive) | GI50 (KM12): 88.5 µM (inactive) | GI50 (LOX IMVI): > 100 µM (inactive) | GI50 (LXFL 529): 72400 nM (inactive) | GI50 (M14): > 100000 nM (inactive) | GI50 (MOLT-4): 27.1 µM (inactive) | GI50 (Malme-3M): > 100000 nM (inactive) | GI50 (NCI-H226): > 100 µM (inactive) | GI50 (NCI-H23): > 100 µM (inactive) | GI50 (NCI-H460): > 100000 nM (inactive) | GI50 (NCI-H522): > 100000 nM (inactive) | GI50 (OVCAR-3): > 100 µM (inactive) | GI50 (OVCAR-4): > 100 µM (inactive) | GI50 (OVCAR-5): > 100 µM (inactive) | GI50 (OVCAR-8): 72.6 µM (inactive) | GI50 (RPMI-8226): > 100 µM (inactive) | GI50 (RXF 393): > 100000 nM (inactive) | GI50 (RXF 631): 55500 nM (inactive) | GI50 (SF-268): 45300 nM (inactive) | GI50 (SF-295): 63400 nM (inactive) | GI50 (SK-MEL-28): > 100000 nM (inactive) | GI50 (SK-MEL-2): > 100 µM (inactive) | GI50 (SK-MEL-5): > 100 µM (inactive) | GI50 (SK-OV-3): > 100000 nM (inactive) | GI50 (SN12C): > 100 µM (inactive) | GI50 (SNB-19): > 100 µM (inactive) | GI50 (SNB-75): 98200 nM (inactive) | GI50 (SNB-78): > 100000 nM (inactive) | GI50 (SR): 35.9 µM (inactive) | GI50 (SW-620): > 100 µM (inactive) | GI50 (TK-10): > 100 µM (inactive) | GI50 (U-251): > 100 µM (inactive) | GI50 (UACC-257): > 100 µM (inactive) | GI50 (UACC-62): > 100000 nM (inactive) | GI50 (UO-31): > 100000 nM (inactive)

COc1cccc2c1C(=O)c1c(O)c3c(c(O)c1C2=O)C[C@@](O)(C(=O)CO)C[C@@H]3OC1CC(N)C(O)C(C)O1 (some centres not stated)
GI50 (786-0): 102 nM (active) and 57.5 nM (active) | GI50 (A549): 74.1 nM (active) and 80.2 nM (active) | GI50 (ACHN): 255 nM (active) | GI50 (BT-549): 438 nM (active) and 255 nM (active) | GI50 (CAKI-1): 269 nM (active) and 176 nM (active) | GI50 (CCRF-CEM): 34.8 nM (active) and 44.9 nM (active) | GI50 (DMS-114): 97.5 nM (active) | GI50 (DMS-273): 88.3 nM (active) | GI50 (EKVX): 547 nM (active) and 301 nM (active) | GI50 (HCC 2998): 314 nM (active) and 191 nM (active) | GI50 (HCT-116): 66.5 nM (active) and 72.6 nM (active) | GI50 (HL-60): 60.5 nM (active) and 57 nM (active) | GI50 (HOP-18): 478 nM (active) | GI50 (HT-29): 312 nM (active) and 187 nM (active) | GI50 (KM-20L2): 879 nM (active) | GI50 (KM12): 254 nM (active) and 366 nM (active) | GI50 (LOX IMVI): 52.1 nM (active) and 44.4 nM (active) | GI50 (M19-MEL): 200 nM (active) | GI50 (MCF7): 16.9 nM (active) | GI50 (MOLT-4): 16.9 nM (active) and 10 nM (active) | GI50 (NCI-H226): < 43.6 nM (active) and 58.1 nM (active) | GI50 (NCI-H23): 76.4 nM (active) and 105 nM (active) | GI50 (OVCAR-3): 394 nM (active) and 474 nM (active) | GI50 (OVCAR-4): 1.16 µM (inactive) and 671 nM (active) | GI50 (OVCAR-5): 658 nM (active) and 733 nM (active) | GI50 (OVCAR-8): 200 nM (active) and 136 nM (active) | GI50 (PC-3): 237 nM (active) and 255 nM (active) | GI50 (RPMI-8226): 55.3 nM (active) and 43.9 nM (active) | GI50 (RXF 631): 912 nM (active) | GI50 (SK-MEL-2): 252 nM (active) and 203 nM (active) | GI50 (SK-MEL-5): 114 nM (active) and 72.8 nM (active) | GI50 (SK-OV-3): 414 nM (active) | GI50 (SN12C): 89.5 nM (active) and 170 nM (active) | GI50 (SNB-19): 54.3 nM (active) and 92 nM (active) | GI50 (SNB-78): 457 nM (active) | GI50 (SR): 10 nM (active) and 12.2 nM (active) | GI50 (SW-620): 79.4 nM (active) and 122 nM (active) | GI50 (T47D): 94.2 nM (active) and 94 nM (active) | GI50 (TK-10): 726 nM (active) and 404 nM (active) | GI50 (U-251): 44.9 nM (active) and 85.9 nM (active) | GI50 (UACC-257): 215 nM (active) and 337 nM (active)

CN1C(OCc2ccccc2)c2c(ccc3c2OCO3)C2C=Cc3cc4c(cc3C21)OCO4 (configuration not stated)
GI50 (786-0): 1.36 µM (inactive) | GI50 (A549): 1.49 µM (inactive) | GI50 (ACHN): 1510 nM (inactive) | GI50 (CAKI-1): 1.03 µM (active) | GI50 (CCRF-CEM): 0.254 µM (active) | GI50 (COLO 205): 1020 nM (active) | GI50 (DLD-1): 434 nM (active) | GI50 (DMS-114): 305 nM (active) | GI50 (EKVX): 1.62 µM (inactive) | GI50 (HCC 2998): 1.63 µM (inactive) | GI50 (HCT-116): 0.398 µM (active) | GI50 (HCT-15): 597 nM | GI50 (HL-60): 226 nM (active) | GI50 (HOP-18): 1330 nM (inactive) | GI50 (HOP-62): 1580 nM (inactive) | GI50 (HOP-92): 1080 nM (active) | GI50 (HT-29): 0.375 µM (active) | GI50 (IGROV-1): 792 nM (active) | GI50 (K562): 611 nM (active) | GI50 (KM-20L2): 1590 nM (inactive) | GI50 (KM12): 1.01 µM (active) | GI50 (LOX IMVI): 0.182 µM (active) | GI50 (LXFL 529): 371 nM (active) | GI50 (M14): 885 nM (active) | GI50 (M19-MEL): 190 nM (active) | GI50 (MOLT-4): 0.223 µM (active) | GI50 (Malme-3M): 1260 nM (inactive) | GI50 (NCI-H226): 1.47 µM (inactive) | GI50 (NCI-H23): 1.38 µM (inactive) | GI50 (NCI-H460): 1480 nM (inactive) | GI50 (NCI-H522): 989 nM (active) | GI50 (OVCAR-3): 0.69 µM (active) | GI50 (OVCAR-4): 1.69 µM (inactive) | GI50 (OVCAR-5): 1.52 µM (inactive) | GI50 (OVCAR-8): 0.319 µM (active) | GI50 (RPMI-8226): 0.221 µM (active) | GI50 (RXF 393): 1100 nM (active) | GI50 (RXF 631): 841 nM (active) | GI50 (SF-268): 475 nM (active) | GI50 (SF-295): 1470 nM (inactive) | GI50 (SF-539): 1630 nM (inactive) | GI50 (SK-MEL-28): 455 nM (active) | GI50 (SK-MEL-2): 1.55 µM (inactive) | GI50 (SK-MEL-5): 1.31 µM (inactive) | GI50 (SK-OV-3): 1220 nM (inactive) | GI50 (SN12C): 1.32 µM (inactive) | GI50 (SNB-19): 1.69 µM (inactive) | GI50 (SNB-75): 1400 nM (inactive) | GI50 (SNB-78): 598 nM (active) | GI50 (SR): 0.237 µM (active) | GI50 (SW-620): 0.38 µM (active) | GI50 (TK-10): 1.89 µM (inactive) | GI50 (U-251): 1.51 µM (inactive) | GI50 (UACC-257): 1.37 µM (inactive) | GI50 (UACC-62): 1200 nM (inactive) | GI50 (UO-31): 1320 nM (inactive)
